According to patent publication US10271552B2, “Heterocyclic compounds as pesticides” (Bayer CropScience Aktiengesellschaft, priority 2015, dated 2019):

Experiments:
Type in all cases: in vivo
[1] = test system: Meloidogyne incognita; assay: Meloidogyne incognita test; conditions: 20 ppm; eggs and larvae, salad seeds in sand; after 14 days
Experimental: Meloidogyne incognita—Test
Solvent: 125.0 parts by weight of acetone
To produce a suitable preparation of active compound, 1 part by weight of active compound is mixed with the stated amount of solvent, and the concentrate is diluted with water to the desired concentration.
Vessels are filled with sand, a solution of the active ingredient, a suspension containing eggs and larvae of the southern root-knot nematode (Meloidogyne incognita) and salad seeds. The salad seeds germinate and the seedlings grow. Galls develop in the roots.
After 14 days the nematicidal activity is determined on the basis of the percentage of gall formation. 100% means no galls were found and 0% means the number of galls found on the roots of the treated plants was equal to that in untreated control plants.

[2] = test system: Boophilus microplus; assay: Boophilus microplus injection test; conditions: 20 μg/animal injected; adult engorged female ticks; after 7 days
Experimental: Boophilus microplus—Injection Test
Solvent: dimethyl sulfoxide
To produce a suitable preparation of active compound, 10 mg of active compound are dissolved in 0.5 ml solvent, and the concentrate is diluted with solvent to the desired concentration.
Five adult engorged female ticks (Boophilus microplus) are injected with 1 μl compound solution into the abdomen. The ticks are transferred into replica plates and incubated in a climate chamber.
After 7 days egg deposition of fertile eggs is monitored. Eggs where fertility is not visible are stored in a climate chamber till hatching after about 42 days. An efficacy of 100% means all eggs are infertile; 0% means all eggs are fertile.

[3] = test system: Ctenocephalides felis; assay: Ctenocephalides felis in-vitro contact test, adult cat flea; conditions: 5 μg/cm^2 (=500 g/ha), after 48 hours
Experimental: Ctenocephalides felis—In-Vitro Contact Tests Adult Cat Flea
9 mg compound is solved in 1 ml acetone and diluted with acetone to the desired concentration. 250 μl of the test solution is filled in 25 ml glass test tubes and homogeneously distributed on the inner walls by rotation and tilting on a shaking device (2 h at 30 rpm). With a compound concentration of 900 ppm, an inner surface of 44.7 cm^2 and a homogeneous distribution, a dose of 5 μg/cm^2 is achieved.
After the solvent has evaporated, each test tube is filled with 5-10 adult cat fleas (Ctenocephalides felis), closed with a perforated lid and incubated in a lying position at room temperature and relative humidity. After 48 hours efficacy is determined. The fleas are patted on the ground of the tubes and are incubated on a heating plate at 45-50° C. for at most 5 minutes. Immotile or uncoordinated moving fleas, which are not able to escape the heat by climbing upwards, are marked as dead or moribund.
An efficacy of 100% means all fleas are dead or moribund; 0% means no fleas are dead or moribund.

[4] = test system: Diabrotica balteata; assay: Diabrotica balteata spray test; conditions: 160 μg/well; germinated wheat seeds, larvae; after 7 days
Experimental: Diabrotica Balteata—Spray Test
(§1) Solvent: 78.0 parts by weight of acetone • • 1.5 parts by weight of dimethylformamide
(§2) Emulsifier: alkylarylpolyglycol ether
(§3) To produce a suitable preparation of active compound, 1 part by weight of active compound is mixed with the stated amount of solvent, and the concentrate is diluted with water, containing an emulsifier concentration of 1000 ppm, to the desired concentration. Further test concentrations are prepared by dilution with emulsifier containing water.
Soaked wheat seeds (Triticum aestivum) are placed in a multiple well plate filled with agar and some water and are incubated for 1 day to germinate (5 seeds per well). The germinated wheat seeds are sprayed with a test solution containing the desired concentration of the active ingredient. Afterwards each unit is infected with 10-20 larvae of the banded cucumber beetle (Diabrotica balteata).
After 7 days efficacy in % is determined. 100% means all the seedlings have grown up like in the untreated, uninfected control; 0% means none of the seedlings have grown.

[5] = test system: Phaedon cochleariae; assay: Phaedon cochleariae spray test; conditions: foliar, 168 h, Chinese cabbage leaf disks, larvae, after 7 days
Experimental: Phaedon cochleariae—Spray Test
as §1, §2
as §3, with “solvents” for “solvent,”, “and” for “and the concentrate”
Chinese cabbage (Brassica pekinensis) leaf disks are sprayed with a preparation of the active ingredient of the desired concentration. Once dry, the leaf disks are infested with mustard beetle larvae (Phaedon cochleariae).
After 7 days mortality in % is determined. 100% means all beetle larvae have been killed and 0% means none of the beetle larvae have been killed.

[6] = test system: Nezara viridula; assay: Nezara viridula spray test (solvent 78.0 acetone / 1.5 dimethylformamide); conditions: 96 h, barley plants, larvae, after 4 days
Experimental: (§4) Nezara viridula—Spray Test
as §1, §2, §3
(§5) Barley plants (Hordeum vulgare) infested with larvae of the southern green stink bug (Nezara viridula) are sprayed with a test solution containing the desired concentration of the active ingredient.
(§6) After 4 days mortality in % is determined. 100% means all the stink bugs have been killed; 0% means none of the stink bugs have been killed.

[7] = test system: Nezara viridula; assay: Nezara viridula spray test (solvent 52.5 acetone / 7 dimethylformamide); conditions: 96 h, barley plants, larvae, after 4 days
Experimental: as §4
Solvent: 52.5 parts by weight of acetone • 7 parts by weight of dimethylformamide
Emulsifier: alkylaryl polyglycolether
To produce a suitable preparation of active compound, 1 part by weight of active compound is mixed with the stated amount of solvent, and the concentrate is diluted with water, containing an emulsifier concentration of 1000 ppm, to the desired concentration. Ammonium salt and/or penetration enhancer in a dosage of 1000 ppm are added to the desired concentration if necessary.
as §5, §6

[8] = test system: Tetranychus urticae; assay: Tetranychus urticae spray test OP-resistant; conditions: foliar, 144 h, French bean leaf disks, all instars, after 6 days
Experimental: Tetranychus urticae—Spray Test OP-Resistant
Solvent: 78.0 parts by weight acetone • 1.5 parts by weight dimethylformamide
as §2
as §3, with “solvents” for “solvent,”, “and” for “and the concentrate”
French bean (Phaseolus vulgaris) leaf disks infected with all instars of the two spotted spidermite (Tetranychus urticae), are sprayed with a preparation of the active ingredient of the desired concentration.
After 6 days mortality in % is determined. 100% means all spider mites have been killed and 0% means none of the spider mites have been killed.

## O=C(Nc1nc(-c2c(F)cccc2F)ns1)c1ccccc1Cl [Compound I-1-3]
[1]
  nematicidal activity (gall formation): 90%
[2]
  efficacy (infertile eggs): 100%

## O=C(Nc1nc(-c2c(F)cccc2F)ns1)c1ccccc1C(F)(F)F [Compound I-1-4]
[1]
  nematicidal activity (gall formation): 90%
[3]
  efficacy (fleas dead or moribund): 100%
[2]
  efficacy (infertile eggs): 100%

## O=C(Nc1nc(-c2c(F)cccc2F)ns1)c1nccnc1C(F)(F)F [Compound I-1-7]
[4]
  efficacy (seedling growth): 100%
[3]
  efficacy (fleas dead or moribund): 100%
[2]
  efficacy (infertile eggs): 100%

## O=C(Nc1nc(-c2c(F)cccc2F)ns1)c1ccccc1I [Compound I-1-8]
[2]
  efficacy (infertile eggs): 100%

## O=C(Nc1nc(-c2c(F)cccc2F)ns1)c1ccccc1C(F)F [Compound I-1-9]
[1]
  nematicidal activity (gall formation): 70%
[2]
  efficacy (infertile eggs): 100%

## O=C(Nc1nc(-c2c(F)cccc2F)ns1)c1ncccc1C(F)(F)F [Compound I-1-13]
[1]
  nematicidal activity (gall formation): 90%

## O=C(Nc1nc(-c2c(F)cccc2F)ns1)c1cccnc1C(F)F [Compound I-1-14]
[1]
  nematicidal activity (gall formation): 100%
[2]
  efficacy (infertile eggs): 100%

## O=C(Nc1nc(-c2ccccc2C(F)(F)F)ns1)c1ccccc1Br [Compound I-1-16]
[1]
  nematicidal activity (gall formation): 90%

## O=C(Nc1nc(-c2ccccc2C(F)(F)F)ns1)c1ncccc1C(F)(F)F [Compound I-1-19]
[4]
  efficacy (seedling growth): 100%
[1]
  nematicidal activity (gall formation): 90%

## O=C(Nc1nc(-c2ccccc2Cl)ns1)c1ccccc1Br [Compound I-1-21, 2-Bromo-N-[3-(2-chlorophenyl)-1,2,4-thiadiazol-5-yl]benzamide]
[5]
  mortality at 500 g/ha: ≥ 80%
[6]
  mortality at 500 g/ha: ≥ 90%

## O=C(Nc1nc(-c2ccccc2Cl)ns1)c1ccccc1Cl [Compound I-1-22]
[2]
  efficacy (infertile eggs): 100%

## O=C(Nc1nc(-c2c(F)cccc2F)ns1)c1cccnc1Cl [Compound I-1-29, 2-Chloro-N-[3-(2,6-difluorophenyl)-1,2,4-thiadiazol-5-yl]nicotinamide]
[7]
  mortality at 500 g/ha: ≥ 90%
[4]
  efficacy (seedling growth): 80%
[1]
  nematicidal activity (gall formation): 100%
[6]
  mortality at 500 g/ha: ≥ 90%

## O=C(Nc1nc(-c2c(F)cccc2F)ns1)c1cccnc1C(F)(F)F.[Na+] [Compound I-1-30, Sodium [3-(2,6-difluorophenyl)-1,2,4-thiadiazol-5-yl]{[2-(trifluoromethyl)pyridin-3-yl]carbonyl}azanide]
[5]
  mortality at 500 g/ha: ≥ 80%
[7]
  mortality at 500 g/ha: ≥ 90%
[1]
  nematicidal activity (gall formation): 100%
[8]
  mortality at 500 g/ha: ≥ 70%
[3]
  efficacy (fleas dead or moribund): 90%
[2]
  efficacy (infertile eggs): 100%

## CCN(C(=O)c1cccnc1C(F)(F)F)c1nc(-c2c(F)cccc2F)ns1 [Compound I-1-34, N-[3-(2,6-Difluorophenyl)-1,2,4-thiadiazol-5-yl]-N-ethyl-2-(trifluoromethyl)nicotinamide]
[8]
  mortality at 500 g/ha: ≥ 70%

## CCc1ncccc1C(=O)Nc1nc(-c2c(F)cccc2F)ns1 [Compound I-1-36, N-[3-(2,6-Difluorophenyl)-1,2,4-thiadiazol-5-yl]-2-ethylnicotinamide]
[5]
  mortality at 500 g/ha: ≥ 80%
[1]
  nematicidal activity (gall formation): 100%

## O=C(Nc1nc(-c2c(F)cccc2F)ns1)c1cccnc1CC(F)(F)F [Compound I-1-38]
[4]
  efficacy (seedling growth): 80%

## O=C(Nc1nc(-c2c(F)cccc2F)ns1)C1=C(C(F)F)OCCS1 [Compound I-1-39]
[1]
  nematicidal activity (gall formation): 70%

## O=C(Nc1nc(-c2ccccc2Cl)ns1)c1cccnc1C(F)(F)F [Compound I-1-43, N-[3-(2-chlorophenyl)-1,2,4-thiadiazol-5-yl]-2-(trifluoromethyl)nicotinamide]
[5]
  mortality at 500 g/ha: ≥ 80%
[7]
  mortality at 500 g/ha: ≥ 90%
[6]
  mortality at 500 g/ha: ≥ 90%
[8]
  mortality at 500 g/ha: ≥ 70%

## O=C(Nc1nc(-c2ccccc2Cl)ns1)c1nccnc1C(F)(F)F [Compound I-1-44]
[4]
  efficacy (seedling growth): 100%
[2]
  efficacy (infertile eggs): 100%

## CCc1ncccc1C(=O)Nc1nc(-c2ccccc2Cl)ns1 [Compound I-1-48]
[1]
  nematicidal activity (gall formation): 90%

## Cc1ccccc1-c1nsc(NC(=O)c2cccnc2C(F)(F)F)n1 [Compound I-1-53]
[4]
  efficacy (seedling growth): 80%

## O=C(Nc1nc(-c2cccc(F)c2C(F)(F)F)ns1)c1cccnc1C(F)(F)F [Compound I-1-61]
[4]
  efficacy (seedling growth): 80%

## O=C(Nc1nc(-c2cc(F)ccc2C(F)(F)F)ns1)c1cccnc1C(F)(F)F [Compound I-1-64]
[4]
  efficacy (seedling growth): 100%

## O=C(Nc1nc(-c2ccc(C(F)(F)F)cc2C(F)(F)F)ns1)c1cccnc1C(F)(F)F [Compound I-1-66, N-{3-[2,4-Bis(trifluoromethyl)phenyl]-1,2,4-thiadiazol-5-yl}-2-(trifluoromethyl)nicotinamide]
[7]
  mortality at 500 g/ha: ≥ 90%

## N#Cc1ccccc1-c1nsc(NC(=O)c2cccnc2C(F)(F)F)n1 [Compound I-1-67, N-[3-(2-Cyanophenyl)-1,2,4-thiadiazol-5-yl]-2-(trifluoromethyl)nicotinamide]
[7]
  mortality at 500 g/ha: ≥ 90%

## O=C(Nc1nc(-c2ccccc2OC(F)(F)F)ns1)c1ccccc1C(F)(F)F [Compound I-1-70, N-{3-[2-(trifluoromethoxy)phenyl]-1,2,4-thiadiazol-5-yl}-2-(trifluoromethyl)benzamide]
[5]
  mortality at 500 g/ha: ≥ 80%
[4]
  efficacy (seedling growth): 100%

## O=C(Nc1nc(-c2ccccc2F)ns1)c1ccccc1C(F)(F)F [Compound I-1-73]
[4]
  efficacy (seedling growth): 100%

## O=C(Nc1nc(-c2c(F)cccc2F)ns1)c1cccc(Cl)c1C(F)(F)F [Compound I-1-77]
[4]
  efficacy (seedling growth): 80%

## N#Cc1cccc(C#N)c1-c1nsc(NC(=O)c2cccnc2C(F)(F)F)n1 [Compound I-1-78, N-[3-(2,6-Dicyanophenyl)-1,2,4-thiadiazol-5-yl]-2-(trifluoromethyl)nicotinamide]
[5]
  mortality at 500 g/ha: ≥ 80%

## O=C(Nc1nc(-c2cccnc2Cl)ns1)c1ccccc1C(F)(F)F [Compound I-3-1, N-[3-(2-Chloropyridin-3-yl)-1,2,4-thiadiazol-5-yl]-2-(trifluoromethyl)benzamide]
[5]
  mortality at 500 g/ha: ≥ 80%
[7]
  mortality at 500 g/ha: ≥ 90%
